Data from patent US7220775B2, “Compound useful for the treatment of neuropathic pain” (H. Lundbeck A/S, priority 2002, dated 2007).

Key:
human α2B adrenoceptor = molecular target: T1, human α2B adrenoceptor (Homo sapiens, UniProt P18089); assay: α2B adrenergic receptor binding; conditions: Table 10
T1 construct: expressed in transfected cells
Source text: (§1) Other receptors: Cell membranes expressing human dopamine D1, D2, D4 and rat D3 receptors were purchased through BioSignal, Inc. (Montreal, Canada). Binding assays using the histamine H, receptor; dopamine receptors; and α1A, α1B, and α2 adrenergic receptors may be carried out according to the procedures described in U.S. Pat. No. 5,780,485, the disclosure of which is hereby incorporated by reference in its entirety into this application. Binding assays using the dopamine D5 receptor may be carried out according to the procedures described in U.S. Pat. No. 5,882,855, the disclosure of which is hereby incorporated by reference in its entirety into this application. Binding assays for the human α1D adrenergic receptor may be carried out according to the procedures described in U.S. Pat. No. 6,156,518, the disclosure of which is hereby incorporated by reference in its entirety into this application.

[1] = test system: neuropathic rats (chronic constriction nerve injury); assay: Chronic constriction nerve injury model of neuropathic pain: mechanical allodynia (Von Frey filaments); type: in vivo, rat; conditions: for effect on withdrawal threshold of the nerve-injured hind paw (Von Frey) vs vehicle / withdrawal threshold of the nerve-injured paw to Von Frey filament challenges: 30 mg/kg i.p.; for withdrawal threshold of the nerve-injured paw to Von Frey filament challenges: Day 12 PO
Experimental: The aim of this study was to assess the potential analgesic effects of Example 92 following intraperitoneal administration at the doses of 3, 10 and 30 mg/kg, respectively, in an animal model of neuropathic pain. A peripheral mononeuropathy was induced in the right hind limb of rats following a chronic constriction nerve injury (Bennett and Xie, 1988), and the development of mechanical allodynia and thermal hyperalgesia was monitored using established behavioral tests (Attal, N., et al., 1990; Hargreaves, K., et al., 1988).
Male Sprague-Dawley rats within the weight range of 200-225 g, and approximate age 7-9 weeks, were allowed to acclimate for a minimum of 6 days prior to the start of the behavioral testing.
All rats underwent a chronic constriction nerve injury, and of these, those that successfully developed allodynia and hyperalgesia were allocated to treatment groups.
There were 5 separate treatment groups (with a minimum of 10 rats per group). The treatment groups were as follows: • Group C received Morphine at 10 mg/kg (n=10) • Group D received Vehicle for Example 92* at 1 ml/kg (n=10) (* 100% DMSO) • Group E received Example 92 at 30 mg/kg (n=10) • Group F received Example 92 at 3 mg/kg (n=10) • Group G received Example 92 at 10 mg/kg (n=10)
The dose volume for all treatments was 1 ml/kg. Each rat received a single i.p. dose of the test substance, reference substance or vehicle on Day 12 PO. Test substance and vehicle dosing solutions were encoded (C-G) so that the observers were unaware of the identity of the treatment groups.
The behavioral tests (Von Frey filament and Thermal Plantar Tests—see below) were performed on all rats on 3 separate days prior to […], to establish baseline values. The pre-surgery baseline values were calculated as the mean of the last 2 days testing (the data from the first day of testing were not included as this was classed as part of the acclimating period). The sequence of tests was always mechanical allodynia (Von Frey Test) followed by thermal hyperalgesia (Thermal Plantar Test), with a minimum 5 min period allowed between the 2 tests.
Each animal was placed in a wire mesh cage and a series of Von Frey filaments (ranging from filament handle number 3.61 to 6.10) applied to the plantar surface of the hind paw, from below. The filaments were applied in ascending order (starting with the weakest force) and the withdrawal threshold for both the ipsilateral and contralateral hind paws was evaluated. Each filament was indented on the plantar surface of the foot to the point where it just started to bend, and this was repeated approximately 8-10 times per filament at a frequency of approximately 1 Hz. The withdrawal threshold was defined as the lowest force of two or more consecutive Von Frey filaments to elicit a reflex withdrawal response.
The animals were surgically prepared over 5 days. Each rat was anaesthetized with sodium pentobarbitone (60 mg/ml; 0.6 ml/kg dose, intraperitonealy; batch number 00230; expiry date 22 May 3) and then supplemented as necessary with isoflurane (1-3% in oxygen). The surface around the incision site was shaved and then sterilized with surgical spirit. Under aseptic conditions the right sciatic nerve was exposed by blunt dissection at mid-thigh level and approximately 1 cm of nerve was freed of adhering connective tissue. Four chromic cat gut (4.0) ligatures, spaced at approximately 1 mm inzervals, were then tied so as to barely constrict the nerve (as viewed under 40× magnification) to induce a peripheral mononeuropathy in the right hind limb. The overlying muscle and skin were then closed in layers using suture material, and the anesthesia discontinued. On recovery from anesthesia, the rats were re-housed with their cage mates on soft padded bedding overnight (to reduce the risk of infection) and subsequently on sawdust bedding following full recovery. The animals were allowed 4 full days to recover before the behavioral testing was recommenced. […]

human α2A adrenoceptor = molecular target: T2, human α2A adrenoceptor (Homo sapiens, UniProt P08913); assay: α2A adrenergic receptor binding; conditions: Table 10
T2 construct: expressed in transfected cells
T2 sequence (P08913 whole entry): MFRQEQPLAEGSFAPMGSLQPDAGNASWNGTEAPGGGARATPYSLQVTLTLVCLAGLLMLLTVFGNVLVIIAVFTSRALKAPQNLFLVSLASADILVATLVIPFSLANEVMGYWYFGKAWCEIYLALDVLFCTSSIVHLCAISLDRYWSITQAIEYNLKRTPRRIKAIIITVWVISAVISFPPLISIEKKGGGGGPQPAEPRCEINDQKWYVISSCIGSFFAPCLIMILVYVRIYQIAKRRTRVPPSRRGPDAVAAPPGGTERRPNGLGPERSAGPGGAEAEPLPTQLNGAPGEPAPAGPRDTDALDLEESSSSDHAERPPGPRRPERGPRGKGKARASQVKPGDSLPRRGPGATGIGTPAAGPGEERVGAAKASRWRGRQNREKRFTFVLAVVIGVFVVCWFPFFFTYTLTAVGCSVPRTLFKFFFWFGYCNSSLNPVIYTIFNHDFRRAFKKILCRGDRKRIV
Source text: as §1

T1 sequence (P18089 whole entry): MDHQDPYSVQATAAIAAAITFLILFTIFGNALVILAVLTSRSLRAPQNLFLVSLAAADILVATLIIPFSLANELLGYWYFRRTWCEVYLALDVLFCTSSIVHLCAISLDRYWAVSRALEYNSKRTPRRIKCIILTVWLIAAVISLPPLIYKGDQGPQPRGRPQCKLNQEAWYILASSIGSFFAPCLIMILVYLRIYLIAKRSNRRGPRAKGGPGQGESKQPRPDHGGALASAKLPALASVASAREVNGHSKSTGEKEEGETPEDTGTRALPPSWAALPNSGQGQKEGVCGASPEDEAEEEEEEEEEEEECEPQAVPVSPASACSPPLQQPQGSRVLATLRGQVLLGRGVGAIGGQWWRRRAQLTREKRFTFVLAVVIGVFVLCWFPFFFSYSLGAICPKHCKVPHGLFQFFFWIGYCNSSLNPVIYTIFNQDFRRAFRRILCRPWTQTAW

**Q.** Which results are given for `O=C1C(=Nc2cccc(C(F)(F)F)c2)c2ccccc2N1c1ccccc1` [Example 92, 1-PHENYL-3-[[3-(TRIFLUOROMETHYL)PHENYL]IMINO]-1,3-DIHYDRO-2H-INDOL-2-ONE]?
**A.** selectivity ratio hα2B (Ki hα2B / Ki hGAL3) (human α2B adrenoceptor): >100; effect on withdrawal threshold of the nerve-injured hind paw (Von Frey) vs vehicle ([1]; 30 min PD): significantly increased; withdrawal threshold of the nerve-injured paw to Von Frey filament challenges ([1]; 30 min PD, vehicle 4.82±2.77 g, P≦0.05): 25.98 ± 8.25 g; effect on withdrawal threshold of the nerve-injured hind paw (Von Frey) vs vehicle ([1]; 90 min PD): not found to be significant; withdrawal threshold of the nerve-injured paw to Von Frey filament challenges ([1]; 90 min PD, vehicle 2.43±1.48 g): 11.73 ± 6.43 g; responses of the uninjured (contralateral) left paw (Von Frey) vs vehicle ([1]; 3, 10, 30 mg/kg i.p., any time point): No significant changes; effect on withdrawal threshold of the nerve-injured paw (Von Frey) vs vehicle ([1]; 3 or 10 mg/kg i.p., any time point): no significant effect; selectivity ratio hα2A (Ki hα2A / Ki hGAL3) (human α2A adrenoceptor): >100
